According to US20240299394A1, “TARGETED TREATMENT FOR SKIN FRAGILITY DISEASES” (University of Washington, priority 2023, published 2024):

Columns and labels:
Assay type in all cases: cell-based, human
HET cells (THEKs) = assay: Immunoblot of KRT10 and KRT14 in keratinocyte lysates; settings: 1 μM Dab, 1 μM Tram, 10 μM U0126, 10 μM PD184352, 20 μM PD98059 (FIG. 10D)
Protocol: THEKs were seeded at a density of 1×10^6 cells per well of 6-well cell culture dishes in KSFM. Upon reaching confluence, KSFM was replaced with E-medium containing vehicle control (DMSO) or inhibitors at the following concentrations: Dabrafenib (1 μM), trametinib (1 μM), U0126 (10 μM), PD184352 (10 μM), or PD98059 (20 μM). After 72 hours, whole-cell lysates were generated by washing cells once in PBS followed by lysis in urea sample buffer [8 M Urea, 60 mM Tris, 1% sodium dodecyl sulfate (SDS), 10% glycerol, 5% β-mercaptoethanol, 0.0005% pyronin-Y, pH 6.8] for 10 min. Lysates were homogenized using a microtip probe sonicator (Fisher Scientific).
Whole-cell lysates were loaded onto Any kD Mini-PROTEAN TGX Precast Protein Gels (Bio-Rad) and separated by electrophoresis. Proteins were transferred onto nitrocellulose membranes (Bio-Rad) in ice-cold Towbin transfer buffer (25 mM Tris, 192 mM glycine, 20% (v/v) methanol) at 100 volts (V) for 90 minutes at 4° C. Membranes were blocked in Intercept tris-buffered saline (TBS) blocking buffer (LI-COR) for 45 min at room temperature. Membranes were probed overnight at 4° C. with the primary antibodies diluted at 1:1000 in Intercept TBS blocking buffer (LI-COR). […]

NHEKs = assay: Immunoblot of cadherins and plakoglobin in NHEK lysates; settings: 24 hours in E-medium, vs DMSO
Protocol: NHEKs were seeded at a density of 1×10^6 cells per well of 6-well cell culture dishes in M154. Upon reaching confluence, M154 was replaced with E-medium containing vehicle control (DMSO) or inhibitors at the following concentrations: Dabrafenib (1 μM), vemurafenib (10 μM), trametinib (1 μM). After 24 hours, whole-cell lysates were generated by washing cells once in phosphate-buffered saline (PBS) followed by lysis in urea sample buffer [8 M Urea, 60 mM Tris, 1% SDS, 10% glycerol, 5% β-mercaptoethanol, 0.0005% pyronin-Y, pH 6.8] for 10 min. Lysates were homogenized using a microtip probe sonicator (Fisher Scientific).
Whole-cell lysates were loaded onto NuPAGE 12% Bis-Tris Gels (Thermo-Fisher Cat. #NP0343BOX) and separated by electrophoresis using NuPAGE MES SDS Running Buffer (Thermo-Fisher Cat. #NP0002). Proteins were transferred onto Immobilon-FL membrane (Millipore of Burlington, MA, Cat. #IPFL85R) in transfer buffer (25 mM Tris, 192 mM glycine, 20% (v/v) methanol) at 50 volts (V) for 60 minutes. Membranes were blocked in Intercept tris-buffered saline (TBS) blocking buffer (LI-COR) for 60 minutes at room temperature. Membranes were probed overnight at 4° C. with the primary antibodies diluted in Intercept TBS blocking buffer (LI-COR). […]

NHEK monolayers = assay: Monolayer mechanical dissociation assay, B-RAF inhibitor model of Grover disease; settings: Dabrafenib 1 μM or vemurafenib 10 μM alone, 24 h
Protocol: Dispase-based mechanical dissociation assays were carried out as described (70). Keratinocytes were plated at a density of 1×10^6 cells per well of 6-well cell culture dishes. Upon reaching confluence, the cells were switched into E-medium. Vehicle control (DMSO) or chemical inhibitors were added at the following concentrations: Dabrafenib (1 μM), vemurafenib (10 μM) trametinib (1 μM), U0126 (10 μM), or PD98059 (20 μM). After 24 h, monolayers were washed with PBS and then incubated with 500 μL dispase (5 U/ml) in Hank's balanced salt solution (Stemcell Technologies of Vancouver, Canada, Cat. #07913) for 30 minutes at 37° C. Next, 4.5 mL PBS was added to the wells and all liquid plus released monolayers were transferred into 15 mL conical tubes, which were placed together in a rack and inverted 1-10 times to induce mechanical stress. Monolayer fragments were transferred back into 6-well cell culture plates and imaged with a 12-megapixel digital camera. Fragments were counted in Fiji.

[1] = test system: organotypic epidermis of NHEKs; assay: Organotypic epidermis treated with B-RAF inhibitors (H&E, immunostaining); settings: Dab or Vem alone, 48 hours
Protocol: Inhibitors were used at the following concentrations: Dabrafenib (1 μM), vemurafenib (10 μM), trametinib (1 μM).
Paraffin-embedded formalin-fixed tissue cross-sections on glass slides were incubated at 65° C. for 2 hours. Sections were prepared for staining by immersion in 3 baths of xylenes (Fisher) for 5 minutes each, followed by 3 baths of 95% ethanol for 5 minutes each, then 70% ethanol for 5 minutes, and finally 3 baths of PBS for 5 minutes each.

## CC(C)(C)c1nc(-c2cccc(NS(=O)(=O)c3c(F)cccc3F)c2F)c(-c2ccnc(N)n2)s1 [dabrafenib]
HET cells (THEKs)
  KRT10 by immunoblot: failed to rescue KRT10 expression
NHEKs
  protein levels of classical cadherins, desmosomal cadherins (DSG1, DSG2, DSG3) and plakoglobin: did not appreciably alter
NHEK monolayers
  number of fragments upon mechanical stress: an increase in the number of fragments
NHEK monolayers; listed as Dab
  number of fragments upon mechanical stress: readily fragmented
[1]
  localization of plakoglobin to cell-cell junctions: reduced localization of plakoglobin to cell-cell junctions
